Literature values as cited in patent publication US6387861B1, “Detergent compositions” (Unilever Home & Personal Care USA division of Conopco, Inc., priority 1999, dated 2002).
Read-outs that look alike come from different tables or passages of the source.

Settings: 20° C.

Water Solubility (grams of solid to form a saturated solution in 100 grams of water, highly water-soluble materials) [g/100 g] | SMILES | Water Solubility (other common materials) [g/100 g]
– | O=BO[O-].[Na+] [Sodium perborate anhydrous] | 3.7
– | O=P(O)(O)OP(=O)(O)OP(=O)(O)O [Sodium tripolyphosphate anhydrous] | 15
>100 | NC(N)=O [Urea] | –
